The values below come from US12221439B2, “Tetrahydropyridopyrimidine derivatives as AhR modulators” (JAGUAHR THERAPEUTICS PTE LTD, priority 2018, dated 2025).

One data set deals with AhR (Homo sapiens (Human), UniProt P35869). In words: AhR antagonism in U937 cells (Promega P450-Glo assay). Format: cell-based. The note with it: inhibition of agonist (KYNA) response, CYP1A1 activity readout (Luciferin-CEE), 24 hrs, arithmetic mean of pIC50. As to the method: Examples were tested in selected biological assays two or more times. Data are reported as the arithmetic mean of the pIC50 (−log10IC50) values, where IC50 is defined as the concentration of compound producing a 50% inhibition of the agonist (KYNA) response.
Chain of AhR (P35869 11-848): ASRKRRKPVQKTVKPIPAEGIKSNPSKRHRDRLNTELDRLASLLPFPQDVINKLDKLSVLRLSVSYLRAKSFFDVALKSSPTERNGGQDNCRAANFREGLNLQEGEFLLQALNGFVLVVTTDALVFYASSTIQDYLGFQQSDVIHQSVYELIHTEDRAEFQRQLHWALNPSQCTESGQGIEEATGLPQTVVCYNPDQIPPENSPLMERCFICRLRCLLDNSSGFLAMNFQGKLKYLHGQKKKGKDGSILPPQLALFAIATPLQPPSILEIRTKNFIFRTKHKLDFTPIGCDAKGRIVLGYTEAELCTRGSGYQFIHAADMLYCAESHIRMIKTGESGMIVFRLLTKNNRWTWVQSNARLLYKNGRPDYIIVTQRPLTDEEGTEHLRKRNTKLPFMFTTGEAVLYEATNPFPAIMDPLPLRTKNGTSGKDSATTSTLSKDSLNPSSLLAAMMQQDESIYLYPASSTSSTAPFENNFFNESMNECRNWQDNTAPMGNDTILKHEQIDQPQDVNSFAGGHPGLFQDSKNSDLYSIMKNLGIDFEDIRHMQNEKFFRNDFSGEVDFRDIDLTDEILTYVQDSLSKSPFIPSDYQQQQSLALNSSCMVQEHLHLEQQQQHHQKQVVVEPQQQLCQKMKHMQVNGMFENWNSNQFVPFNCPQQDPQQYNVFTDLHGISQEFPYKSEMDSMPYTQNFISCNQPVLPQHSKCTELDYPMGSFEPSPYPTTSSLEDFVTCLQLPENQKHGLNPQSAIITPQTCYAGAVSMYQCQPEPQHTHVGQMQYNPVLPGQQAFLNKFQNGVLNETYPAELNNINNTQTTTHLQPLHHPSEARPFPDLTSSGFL
In Vitro Assay 1: AhR Antagonism in U937 Cells (Promega P450-Glo™ Assay)
AhR antagonism was assessed in U937 cells (myeloid lineage cell line derived from a human histiocytic lymphoma).). Ligand binds the AhR in the cytoplasm, and the AhR-ligand complex translocates to the nucleus and forms a heterodimer with AhR nuclear translocator (Arnt). This complex binds the xenobiotic response element (XRE) in the 5′ upstream region of the CYP1A1 promoter, enhancing CYP1A1 expression. CYP1A1 activity is subsequently determined by assessing the conversion of Luciferin-CEE to luciferin, which in turn reacts with luciferase to produce light. The amount of light produced is directly proportional to cytochrome P450 activity. U937 cells in Ultraculture serum free media (Lonza) were plated at 100,000 cells per well in a round bottom 96 well tissue culture plate. Seven concentrations of test compound (final [DMSO] 1%) were added and incubated for 10 minutes before the addition of […] KYNA. The plates were then placed in an incubator at 37° C., >85% humidity, 5% CO2 for 24 hrs. After aspiration of the supernatant the CYP1A1 substrate Luciferin-CEE ([Final] 83 μM) was added and incubated for 3 hrs before the reaction was stopped by adding luciferin detection reagent and luminescence was read after 20 minutes.

In the next data set the target is CYP1A1 (Homo sapiens (Human), UniProt P04798). The data set is described as follows: CYP1A1 inhibition assay (Promega P450-Glo, Cypex bactosomes). The format is biochemical. The settings on record: direct CYP1A1 inhibition, Luciferin-CEE 30 μM, NADPH, 37° C., arithmetic mean of pIC50. As to the method: In Vitro Assay 22: […] Inhibition Assay
Chain of CYP1A1 (P04798 whole entry): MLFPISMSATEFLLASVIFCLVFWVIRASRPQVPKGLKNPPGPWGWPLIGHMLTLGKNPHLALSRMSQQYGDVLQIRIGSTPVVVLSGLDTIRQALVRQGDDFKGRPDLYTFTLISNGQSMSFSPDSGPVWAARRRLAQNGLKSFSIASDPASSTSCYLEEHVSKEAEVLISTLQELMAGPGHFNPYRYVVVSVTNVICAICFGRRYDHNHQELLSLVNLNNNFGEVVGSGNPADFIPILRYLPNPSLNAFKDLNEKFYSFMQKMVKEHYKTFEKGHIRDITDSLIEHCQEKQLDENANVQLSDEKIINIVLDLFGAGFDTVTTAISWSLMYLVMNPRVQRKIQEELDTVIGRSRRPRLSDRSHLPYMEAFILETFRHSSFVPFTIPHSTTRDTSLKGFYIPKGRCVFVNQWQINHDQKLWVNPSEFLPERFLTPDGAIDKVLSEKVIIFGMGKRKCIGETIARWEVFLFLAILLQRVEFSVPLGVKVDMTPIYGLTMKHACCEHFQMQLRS
The direct CYP1A1 inhibitory activity of test compounds was also assessed using the Promega P450-Glo™ assay system. Seven concentrations of test compound were added to a ½ area white 96 well plate. Cypex […]. bactosomes ([final] 0.5 pmol) and CYPA substrate Luciferin-CEE ([final] 30 μM) were prepared in 0.1M potassium phosphate buffer and incubated with test compounds at 37° C. for 5 minutes. 0.2m NADPH was then added to the plates and incubated at 37° C., for 10 minutes. The reaction was stopped by adding luciferin detection reagent and luminescence was read after 20 minutes.

What is called IC50 is the concentration that gives 50% inhibition. At AhR, `CC(=O)N1CCc2c(nc(-c3cncc(F)c3)nc2NCCc2c[nH]c3ccccc23)C1` [Example 1, 1-(4-((2-(1H-indol-3-yl)ethyl)amino)-2-(5-fluoropyridin-3-yl)-5,8-dihydropyrido [3,4-d]pyrimidin-7(6H)-yl)ethan-1-one] showed a concentration for half-maximal inhibition (IC50) of 1.58 nM. The “cyp1A1 pIC50” value on CYP1A1 is reported as 6.00.
On the same counts, the results for `CS(=O)(=O)N1CCc2c(nc(-c3cncc(F)c3)nc2NCCc2c[nH]c3ccccc23)C1` [Example 2, N-(2-(1H-indol-3-yl)ethyl)-2-(5-fluoropyridin-3-yl)-7-(methylsulfonyl)-5,6,7,8-tetrahydropyrido [3,4-d]pyrimidin-4-amine] are 1.26 nM and 6.20.
As to `N#CCN1CCc2c(nc(-c3cncc(F)c3)nc2NCCc2c[nH]c3ccccc23)C1` [Example 4, 2-(4-((2-(1H-indol-3-yl)ethyl)amino)-2-(5-fluoropyridin-3-yl)-5,8-dihydropyrido[3,4-d]pyrimidin-7(6H)-yl)acetonitrile], the IC50 on AhR is 6.31 nM; on CYP1A1, 794 nM.
`CC(C)N1CCc2c(nc(-c3cncc(F)c3)nc2NCCc2c[nH]c3ccccc23)C1` [Example 5, N-(2-(1H-indol-3-yl)ethyl)-2-(5-fluoropyridin-3-yl)-7-isopropyl-5,6,7,8-tetrahydropyrido[3,4-d]pyrimidin-4-amine] had an IC50 at AhR of 10 nM. Also, the “cyp1A1 pIC50” value on CYP1A1 was 6.40.
On the same counts, the results for `CN1CCc2c(nc(-c3cncc(F)c3)nc2NCCc2c[nH]c3ccccc23)C1` [Example 6, N-(2-(1H-indol-3-yl)ethyl)-2-(5-fluoropyridin-3-yl)-7-methyl-5,6,7,8-tetrahydropyrido[3,4-d]pyrimidin-4-amine] are 5.01 nM and 6.50.
On the same counts, the results for `c1cncc(-c2nc3c(c(NCCc4c[nH]c5ccccc45)n2)CNCC3)c1` [Example 7, N-(2-(1H-indol-3-yl)ethyl)-2-(pyridin-3-yl)-5,6,7,8-tetrahydropyrido [4,3-d]pyrimidin-4-amine] are 10 nM and 6.70.
On the same counts, the results for `Fc1cncc(-c2nc3c(c(NCCc4c[nH]c5ccccc45)n2)CCNC3)c1` [Example 8, N-(2-(1H-indol-3-yl)ethyl)-2-(5-fluoropyridin-3-yl)-5,6,7,8-tetrahydropyrido[3,4-d]pyrimidin-4-amine] are 15.8 nM and 7.00.
`c1cncc(-c2nc3c(c(NCCc4c[nH]c5ccccc45)n2)CCNC3)c1` [Example 9, N-(2-(1H-indol-3-yl)ethyl)-2-(pyridin-3-yl)-5,6,7,8-tetrahydro pyrido[3,4-d]pyrimidin-4-amine] had an IC50 at AhR of 20 nM. Further, the “cyp1A1 pIC50” value on CYP1A1 is recorded as 6.60.
For `c1cncc(-c2nc3c(c(NCCc4c[nH]c5ccccc45)n2)CNC3)c1` [Example 10, N-(2-(1H-indol-3-yl)ethyl)-2-(pyridin-3-yl)-6,7-dihydro-5H-pyrrolo[3,4-d]pyrimidin-4-amine], in that order: 12.6 nM and 6.80.
On the same counts, the results for `Fc1cncc(-c2nc3c(c(OCCc4c[nH]c5ccccc45)n2)CCNC3)c1` [Example 11, 4-(2-(1H-indol-3-yl)ethoxy)-2-(5-fluoropyridin-3-yl)-5,6,7,8-tetrahydropyrido[3,4-d]pyrimidine] are 3.16 nM and 6.40.
On the same counts, the results for `CN(C)S(=O)(=O)N1CCc2c(nc(-c3cncc(F)c3)nc2NCCc2c[nH]c3ccccc23)C1` [Example 12, 4-((2-(1H-indol-3-yl)ethyl)amino)-2-(5-fluoropyridin-3-yl)-N,N-dimethyl-5,8-dihydropyrido[3,4-d]pyrimidine-7(6H)-sulfonamide] are 1 nM and 6.10.
Turning to `CN(C)C(=O)N1CCc2c(nc(-c3cncc(F)c3)nc2NCCc2c[nH]c3ccccc23)C1` [Example 13, 4-((2-(1H-indol-3-yl)ethyl)amino)-2-(5-fluoropyridin-3-yl)-N,N-dimethyl-5,8-dihydropyrido[3,4-d]pyrimidine-7(6H)-carboxamide], the IC50 on AhR was 3.16 nM. The “cyp1A1 pIC50” value on CYP1A1 amounted to 5.70.
On the same counts, the results for `CNC(=O)N1CCc2c(nc(-c3cncc(F)c3)nc2NCCc2c[nH]c3ccccc23)C1` [Example 14, 4-((2-(1H-indol-3-yl)ethyl)amino)-2-(5-fluoropyridin-3-yl)-N-methyl-5,8-dihydropyrido[3,4-d]pyrimidine-7(6H)-carboxamide] are 1.26 nM and 6.10.
For `Cn1nccc1C(=O)N1CCc2c(nc(-c3cncc(F)c3)nc2NCCc2c[nH]c3ccccc23)C1` [Example 15, (4-((2-(1H-indol-3-yl)ethyl)amino)-2-(5-fluoropyridin-3-yl)-5,8-dihydropyrido[3,4-d]pyrimidin-7(6H)-yl)(1-methyl-1H-pyrazol-5-yl)methanone], in that order: 2 nM and 6.00.
`NCC(=O)N1CCc2c(nc(-c3cncc(F)c3)nc2NCCc2c[nH]c3ccccc23)C1` [Example 16, 1-(4-((2-(1H-indol-3-yl)ethyl)amino)-2-(5-fluoropyridin-3-yl)-5,8-dihydropyrido[3,4-d]pyrimidin-7(6H)-yl)-2-aminoethan-1-one]: the half-maximal inhibitory concentration (IC50) at AhR was 6.31 nM; against CYP1A1 it was 100 nM.
`Fc1cncc(-c2nc3c(c(NCCc4c[nH]c5ccccc45)n2)CCNCC3)c1` [Example 17a, N-(2-(1H-indol-3-yl)ethyl)-2-(5-fluoropyridin-3-yl)-6,7,8,9-tetrahydro-5H-pyrimido[4,5-d]azepin-4-amine]: the half-maximal inhibitory concentration (IC50) at AhR was 25.1 nM. The “cyp1A1 pIC50” value at CYP1A1 amounted to 6.20.
On the same counts, the results for `CCN1CCc2nc(-c3cncc(F)c3)nc(NCCc3c[nH]c4ccccc34)c2CC1` [Example 17b, N-(2-(1H-indol-3-yl)ethyl)-7-ethyl-2-(5-fluoropyridin-3-yl)-6,7,8,9-tetrahydro-5H-pyrimido[4,5-d]azepin-4-amine] are 15.8 nM and 6.10.
For `CC1(C)c2nc(-c3cncc(F)c3)nc(NCCc3c[nH]c4ccccc34)c2CCN1Cc1ccccc1` [Example 18a, N-(2-(1H-indol-3-yl)ethyl)-7-benzyl-2-(5-fluoropyridin-3-yl)-8,8-dimethyl-5,6,7,8-tetrahydropyrido[3,4-d]pyrimidin-4-amine], in that order: 5.01 nM and 6.20.
On the same counts, the results for `CC1(C)NCCc2c(NCCc3c[nH]c4ccccc34)nc(-c3cncc(F)c3)nc21` [Example 18b, N-(2-(1H-indol-3-yl)ethyl)-2-(5-fluoropyridin-3-yl)-8,8-dimethyl-5,6,7,8-tetrahydropyrido[3,4-d]pyrimidin-4-amine] are 20 nM and 5.90.
Consider `Fc1cncc(-c2nc3c(c(NCCc4nc5ccccc5[nH]4)n2)CCNC3)c1` [Example 19, N-(2-(1H-benzo[d]imidazol-2-yl)ethyl)-2-(5-fluoropyridin-3-yl)-5,6,7,8-tetrahydropyrido[3,4-d]pyrimidin-4-amine], for which the IC50 on AhR was 3160 nM. For the same compound, the “cyp1A1 pIC50” value at CYP1A1 is given as 5.10.
On the same counts, the results for `Cc1cncc(-c2nc3c(c(NCCc4c[nH]c5ccccc45)n2)CCNC3)c1` [Example 20, N-(2-(1H-indol-3-yl)ethyl)-2-(5-methylpyridin-3-yl)-5,6,7,8-tetrahydropyrido[3,4-d]pyrimidin-4-amine] are 25.1 nM and 6.40.
On the same counts, the results for `Fc1cncc(-c2nc3c(c(NCCc4c[nH]c5ccccc45)n2)CNCC3)c1` [Example 21, N-(2-(1H-indol-3-yl)ethyl)-2-(5-fluoropyridin-3-yl)-5,6,7,8-tetrahydropyrido[4,3-d]pyrimidin-4-amine] are 20 nM and 6.40.
As for `Clc1cncc(-c2nc3c(c(NCCc4c[nH]c5ccccc45)n2)CCNC3)c1` [Example 22, N-(2-(1H-indol-3-yl)ethyl)-2-(5-chloropyridin-3-yl)-5,6,7,8-tetrahydropyrido[3,4-d]pyrimidin-4-amine], the IC50 at AhR is 10 nM; at CYP1A1, 316 nM.
Regarding `N#Cc1cncc(-c2nc3c(c(NCCc4c[nH]c5ccccc45)n2)CCNC3)c1` [Example 23, 5-(4-((2-(1H-indol-3-yl)ethyl)amino)-5,6,7,8-tetrahydropyrido[3,4-d]pyrimidin-2-yl)nicotinonitrile], the IC50 at AhR was 10 nM. Moreover, the “cyp1A1 pIC50” value at CYP1A1 was found to be 6.70.
